Laboratory results from ChEMBL document CHEMBL1221220, “Transport and signaling via the amino acid binding site of the yeast Gap1 amino acid transceptor” (Nat Chem Biol, 2009).
Where a chain is given by its changes, count along the chain named. Activity calls are given as the source filed them. No cut-off for these calls is given here.

Tests used:
[1] = system: T1, General amino-acid permease GAP1 (Saccharomyces cerevisiae), P19145 [A396C]; experiment: Induction of yeast Gap1 A396C mutant-mediated trehalose activation at 10 mM
T1 sequence (whole entry): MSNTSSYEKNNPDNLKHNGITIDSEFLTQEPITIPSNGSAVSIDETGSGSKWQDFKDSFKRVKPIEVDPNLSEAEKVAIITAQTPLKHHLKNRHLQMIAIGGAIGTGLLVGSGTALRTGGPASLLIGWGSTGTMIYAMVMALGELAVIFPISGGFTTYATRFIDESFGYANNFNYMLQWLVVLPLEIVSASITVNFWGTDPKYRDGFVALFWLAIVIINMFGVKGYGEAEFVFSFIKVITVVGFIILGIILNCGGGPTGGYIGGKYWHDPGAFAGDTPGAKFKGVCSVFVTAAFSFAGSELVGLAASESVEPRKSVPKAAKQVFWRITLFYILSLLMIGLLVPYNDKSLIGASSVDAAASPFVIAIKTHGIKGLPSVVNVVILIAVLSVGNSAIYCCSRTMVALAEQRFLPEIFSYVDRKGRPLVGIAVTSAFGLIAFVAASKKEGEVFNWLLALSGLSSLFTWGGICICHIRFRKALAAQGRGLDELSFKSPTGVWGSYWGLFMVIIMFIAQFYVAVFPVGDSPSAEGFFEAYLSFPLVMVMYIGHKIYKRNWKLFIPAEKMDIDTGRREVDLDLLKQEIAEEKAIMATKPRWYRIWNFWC

[2] = system: General amino-acid permease GAP1 (Saccharomyces cerevisiae), P19145 [V402C]; experiment: Inhibition of yeast Gap1 V402C mutant-mediated amino acid uptake at 10 mM
Chain of General amino-acid permease GAP1 (Saccharomyces cerevisiae), P19145 [V402C] (P19145 whole entry V402C): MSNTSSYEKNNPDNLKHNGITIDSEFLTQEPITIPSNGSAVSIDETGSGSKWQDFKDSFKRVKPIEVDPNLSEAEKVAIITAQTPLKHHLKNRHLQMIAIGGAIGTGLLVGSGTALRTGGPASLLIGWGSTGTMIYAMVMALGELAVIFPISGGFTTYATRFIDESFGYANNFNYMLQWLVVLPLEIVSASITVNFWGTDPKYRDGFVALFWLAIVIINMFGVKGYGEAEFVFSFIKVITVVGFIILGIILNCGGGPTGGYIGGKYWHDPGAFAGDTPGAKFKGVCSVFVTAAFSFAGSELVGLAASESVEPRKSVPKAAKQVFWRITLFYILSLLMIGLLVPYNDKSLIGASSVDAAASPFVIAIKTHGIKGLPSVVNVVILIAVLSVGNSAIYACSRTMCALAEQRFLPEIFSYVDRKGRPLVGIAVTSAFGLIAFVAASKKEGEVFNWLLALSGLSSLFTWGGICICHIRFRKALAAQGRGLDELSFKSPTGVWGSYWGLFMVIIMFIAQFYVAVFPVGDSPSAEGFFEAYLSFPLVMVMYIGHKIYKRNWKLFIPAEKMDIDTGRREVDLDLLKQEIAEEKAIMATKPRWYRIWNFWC

[3] = system: T2, General amino-acid permease GAP1 (Saccharomyces cerevisiae), P19145 [L383C]; experiment: Induction of yeast Gap1 L383C mutant-mediated trehalose activation at 2 mM in presence of 10 mM MTSEA treated before compound addition
T2 sequence (whole entry): T1 sequence (whole entry) with L383C, C396A

[4] = system: T3, General amino-acid permease GAP1 (Saccharomyces cerevisiae), P19145 [V381C]; experiment: Activation of yeast Gap1 V381C mutant-mediated amino acid uptake at 10 mM
T3 sequence (whole entry): T1 sequence (whole entry) with V381C, C396A

[5] = system: T4, General amino-acid permease GAP1 (Saccharomyces cerevisiae), P19145 [R399C]; experiment: Induction of yeast Gap1 R399C mutant-mediated amino acid uptake at 2 mM in presence of 10 mM MTSEA treated before compound addition
T4 sequence (whole entry): T1 sequence (whole entry) with C396A, R399C

Activity [1]: inactive
inhibition [2]: Active
inhibition [3]: Active
Activity [4]: inactive
Activity [5]: Active
SMILES: NC(=O)NCCC[C@H](N)C(=O)O
